Test results reported in article PMC7900953, “Location of a single histidine within peptide carriers increases mRNA delivery” (The Journal of Gene Medicine, 2020).

Legend:
[1] = tested on: MDA‐MB‐231 cells; assay: In vitro uptake of HK polyplexes by fluorescence microscopy; type: cell-based; settings: HK:mRNA 4:1; for Aggregates of polyplexes seen by fluorescence microscopy: 4 hours after transfection
Method: With the mRNA labeled with Cy5, HK polyplexes at a ratio of 4:1 (HK:mRNA) were prepared as described for in vitro transfection. The labeled polyplexes were incubated with MDA‐MB‐231 cells for four hours in Opti‐MEM. After the cells were washed with phosphate‐buffered saline (PBS) (Quality Biologicals, Gaithersburg, MD, USA), they were incubated for 30 minutes with LysoTracker Green DND‐26 (Cell Signaling Technology, Inc., Danvers, MA, USA), a dye that stains acidic endosomes and lysosomes. Then after the cells were washed twice with PBS and once with 1% Triton‐X, they were fixed (4% formalin/1% glutaraldehyde) and the nuclei were stained with chromatin dye Hoechst 33342 (Invitrogen, Carlsbad, CA, USA). Images were obtained with a Nikon TE2000‐S (Nikon, Tokyo, Japan) with a mercury lamp light source usng the filter sets: Ex‐357(20)/Em‐460(60) (Hoechst); Ex‐480(30)/Em‐535(45) (Lysotracker green DND‐26); Ex‐620(50)/Em‐690(50) (Cy5‐labeled‐mRNA). Red/green ratios were measured on 20 intracellular acidic vesicles (one per cell) using ImageJ, version 1.52. ^42
FIGURE 5 Fluorescence images of different mRNA polyplexes within acidic vesicles of MDA‐MB‐231 cells. (A) Four hours after transfection with labeled mRNA by H3K(+H)4b (upper) or H3K4b (lower) carriers, intracellular acidic vesicles were stained with Lysotracker green. The cells were then fixed, and the nuclei were stained with Hoesch 33342 dye. Images were obtained with a Nikon TE2000‐S using a mercury lamp light source and the filter sets delineated in the Materials and methods (green, acidic vesicles; red, cynanine 5‐labeled mRNA; blue, nuclei labeled with Hoescht dye). […] Arrows indicate the irregularly shaped mRNA aggregates frequently observed with H3K4b carrier. (B) Analysis of the amount of HK (H3K4b or H3K(+H)4b) polyplexes within acidic endosomal vesicles of MDA‐MB‐231 cells. Images of HK polyplexes labeled with cyanine5 (red emission) were imported into endosomal vesicles (green emission). The red/green ratios were measured on 20 intracellular acidic vesicles using ImageJ. […]

[2] = tested on: MDA‐MB‐231 cells; assay: mRNA transfection with HK lipopolyplexes (HK peptide + DOTAP liposomes); type: cell-based; settings: HK 4 μg, mRNA 1 μg, DOTAP 1 μg; luciferase 24 h
Method: Transfection with HK lipopolyplexes was carried out in a manner similar to that described above, with a few exceptions. In brief, the HK peptide (4 μg) in Opti‐MEM was mixed initially with mRNA (1 μg) for 30 minutes. This was followed by adding the DOTAP cationic liposome (1,2‐dioleoyl‐3‐trimethyl ammonium‐propane; 1 μg; Roche, Basel, Switzerland) for an additional 30 minutes. The Opti‐MEM mixture (50 μl) was then added dropwise to the cells.
FIGURE 8 Comparison of mRNA transfection with DOTAP and several HK peptides. To form lipopolyplexes, the HK peptides (4 μg) in Opti‐MEM were initially mixed with mRNA (1 μg) for 30 minutes. DOTAP liposomes (1 μg) were then added, gently mixed and allowed to stand for an additional 30 min. Polyplexes were prepared as described previously. These complexes in Opti‐MEM (50 μl) were then added to the cells and, 24 hours later, the luciferase activity was measured. *p < 0.05; **p < 0.01; ***p < 0.001
Figure S4. Transfection of mRNA (1 µg) with HK peptides (4 µg) and/or DOTAP liposomes (1 µg). Cells were transfected with mRNA lipoplexes, polyplexes, or lipopolyplexes as described in the Material and Methods section, and twenty-four h later, the luciferase activity was measured. ***, P<0.001; ****, P<0.0001

[3] = tested on: trypsin; assay: Stability of HK polyplexes to enzymatic degradation; type: in vitro ADME; settings: trypsin (0.025%) 30 or 60 min; HK (0.5, 1, 4 µg):mRNA (1 µg); release of mRNA on 1% agarose gel
Method: After preparation of the H3K4b‐ or H3k(+H)4b‐mRNA polyplexes [w:w; HK (0.5, 1 or 4 μg):mRNA (1 μg)], these polyplexes were incubated with trypsin (0.025%) for 30 or 60 minutes. The HK polyplexes were then loaded on a 1% agarose gel and electrophoresis was carried out at 75 V for 30 minutes in TAE buffer. The gel was stained in a TAE buffer containing ethidium bromide (1 μg/ml) for 10 minutes.
[picture] Figure S3. Stability of HK polyplexes to enzymatic degradation. After preparation of the H3K4b or H3k(+H)4b mRNA polyplexes (wt:wt; HK (0.5, 1, 4 µg):mRNA (1 µg)), these polyplexes were incubated with trypsin (0.025%) for 30 or 60 min. The HK polyplexes were then loaded on a 1% agarose gel and electrophoresis was carried out at 75 V for 30 min in TAE buffer. The gel was stained in a TAE buffer containing ethidium bromide (1 µg/ml) for 10 min.

[4] = tested on: MDA‐MB‐231 cells; assay: In vitro uptake of HK polyplexes by flow cytometry; type: cell-based; settings: HK:mRNA 4:1, 1, 2 and 4 hours, DMEM/10% FBS
Method: Intracellular uptake of polymer–mRNA complex in MDA‐MB‐231 was measured by flow cytometry. Twenty‐four hours before the treatment, cells were plated in a 24‐well plate. The polymer‐mRNA polyplex was formed in Opti‐MEM at a ratio of 4:1 at room temperature for 30 minutes. After the cell culture medium was replaced with DMEM/10% FBS, H3K(+H)4b‐ or H3K4b‐mRNA polyplexes (cyanine 5'‐labeled mRNA; Trilink Biotechnologies, Inc.) were added to the cells. At several time points (1, 2 and 4 hours), transfected cells were harvested, fixed with 4% formalin/1% glutaraldehyde, and resuspended in PBS buffer for analysis. The results from the fluorescently labeled MDA‐MB‐231 cells were then acquired using Cytoflex (Beckman Coulter) and analyzed using CytExpert, version 2.3.0.84 (Beckman Coulter) on the flow cytometer.
Figure S2. Uptake of cyanine 5-labeled mRNA uptake into MDA-MB-231 cells with different peptide carriers. The percentages of cells containing labeled mRNA 1, 2, 4 hours after transfection with H3K(+H)4b (upper panel) or with H3K4b (lower panel).

[5] = tested on: cytokines; settings: in vitro and in vivo; cited from earlier work

With “R = KHHHKHHHKHHHHKHHHK [H3K(+H)4b, four‐branched analogue of H3K4b with one extra histidine in the second ‐HHHK‐ motif]” the “Aggregates of polyplexes seen by fluorescence microscopy” value [1] was “not observed”, the “Localization of polyplexes within acidic endosomal vesicles” value ([1]; 4 hours in Opti‐MEM, red/green ratios on 20 vesicles, p < 0.001) was “localized within the acidic endosomal vesicles significantly more than H3K4b polyplexes” and the “mRNA carrier effectiveness compared with DOTAP liposomes” value [2] was “significantly better carriers of mRNA than the DOTAP liposomes”. For the same substance, the “Stability of mRNA polyplex to trypsin” value [3] was “reduced stability to trypsin at the 1:2 and 1:1 ratios compared to the H3k(+H)4b polyplex” and the “Uptake of Cy5-labelled mRNA polyplexes into cells” value [4] was “imported into the cells more than H3K4b polyplexes”.
In the case of R = KHHHKHHHKHHHKHHHK [H3K4b], the “Aggregates of polyplexes seen by fluorescence microscopy” value [1] is listed as “likely extracellular aggregates” and the “Cytokine induction by siRNA polyplex” value [5] is listed as “induced cytokines to a significantly greater degree in vitro and in vivo than the H3K(+H)4b‐siRNA polyplexes”.
